Data reported in ChEMBL document CHEMBL1255229, “Novel antimicrobial peptides that exhibit activity against select agents and other drug resistant bacteria” (2010).
In brackets after ≈: the same amount, converted by molar mass. Starred links: 1 amine or outer side, 2 acyl side, 3 side chain; linkers in the order of their positions; H or OH if unused. Non-standard residues stand in square brackets, D forms with d. Residues, ends and D or L forms follow the SMILES beside them. ξ: configuration not given here. Pro(3ξ,4ξ-(CH2)4) = O=C(O)[C@H]1NCC2CCCCC21; X1 = O=C([C@@H]1CN([*:1])C2CCCCC21)[*:2]; X2 = O=C([C@H]1CN([*:1])C2CCCCC21)[*:2]; Phe(4-F) = N[C@@H](Cc1ccc(F)cc1)C(=O)O; Tic = O=C(O)[C@@H]1Cc2ccccc2CN1; Orn = NCCC[C@H](N)C(=O)O; Dab = NCC[C@H](N)C(=O)O; Ahx = NCCCCCC(=O)O; βAla = NCCC(=O)O

Legend:
Type in all cases: functional
[1] = system: Yersinia pestis; experiment: Antimicrobial activity against Yersinia pestis CO92 after 24 hrs; conditions: CO92, 24 h
[2] = system: Burkholderia pseudomallei; experiment: Antimicrobial activity against Burkholderia pseudomallei BURK003(1026b) after 24 hrs
[3] = system: Francisella tularensis; experiment: Antimicrobial activity against Francisella tularensis SCHU-S4 after 24 hrs; conditions: SCHU-S4, 24 h
[4] = system: Burkholderia mallei; experiment: Antimicrobial activity against Burkholderia mallei ATCC 23444 after 24 hrs; conditions: ATCC 23444, 24 h
[5] = system: Acinetobacter baumannii; experiment: Antimicrobial activity against Acinetobacter baumannii WRAIR after 24 hrs
[6] = system: Staphylococcus aureus; experiment: Antimicrobial activity against methicillin-resistant Staphylococcus aureus ATCC 33591 after 24 hrs; conditions: ATCC 33591, 24 h
[7] = system: Brucella melitensis; experiment: Antimicrobial activity against Brucella melitensis 16 M after 24 hrs
[8] = system: Brucella abortus; experiment: Antimicrobial activity against Brucella abortus 2308 after 24 hrs; conditions: Brucella abortus, 2308, 24 h
[9] = system: Brucella suis; experiment: Antimicrobial activity against Brucella suis ATCC 23445 after 24 hrs; conditions: ATCC 23445, 24 h
[10] = system: Bacillus anthracis; experiment: Antimicrobial activity against Bacillus anthracis Ames after 24 hrs
[11] = system: Acinetobacter baumannii; experiment: Antimicrobial activity against Acinetobacter baumannii ATCC 19606 after 24 hrs; conditions: ATCC 19606 = CIP 70.34 = JCM 6841, 24 h

Structure (SMILES) | MIC [1] [µM] | MIC [2] [µM] | MIC [3] [µM] | MIC [4] [µM] | MIC [5] [µM] | MIC [6] [µM] | MIC [7] [µM] | MIC [8] [µM] | MIC [9] [µM] | MIC [10] [µM] | MIC [11] [µM]
CC(=O)NCC(=O)N[C@@H](Cc1ccccc1)C(=O)N1Cc2ccccc2C[C@H]1C(=O)N1C[C@@H](C(=O)NCC(=O)N[C@@H](CCCCN)C(=O)N2Cc3ccccc3C[C@H]2C(=O)N2C[C@@H](C(=O)NCC(=O)N[C@@H](Cc3ccccc3)C(=O)N3Cc4ccccc4C[C@H]3C(=O)N3C[C@@H](C(=O)NCC(=O)N[C@@H](CCCCN)C(=O)N4Cc5ccccc5C[C@H]4C(=O)N[C@@H](CCCN)C(=O)N[C@@H](CCCN)C(=O)N[C@@H](CCCN)C(=O)N[C@@H](CCCN)C(N)=O)C4CCCCC43)C3CCCCC32)C2CCCCC21 (some centres undefined) (Ac-GF[Tic][X1]GK[Tic][X1]GF[Tic][X1]GK[Tic][Orn][Orn][Orn][Orn]-NH2) | 26.2 (≈ 62.5 µg/mL) | 209 (≈ 498 µg/mL) | 105 (≈ 250 µg/mL) | 209 (≈ 498 µg/mL) | 6.5 (≈ 15.5 µg/mL) | 52.4 (≈ 125 µg/mL) | 104 (≈ 248 µg/mL) | 209 (≈ 498 µg/mL) | 13 (≈ 31 µg/mL) | 0.81 (≈ 1.93 µg/mL) | 6.5 (≈ 15.5 µg/mL)
CC(=O)NCC(=O)N[C@@H](Cc1ccccc1)C(=O)N1Cc2ccccc2C[C@H]1C(=O)N1C[C@@H](C(=O)NCC(=O)N[C@@H](CCCCN)C(=O)N2Cc3ccccc3C[C@H]2C(=O)N2C[C@@H](C(=O)NCC(=O)N[C@@H](Cc3ccccc3)C(=O)N3Cc4ccccc4C[C@H]3C(=O)N3C[C@@H](C(=O)NCC(=O)N[C@@H](CCCCN)C(=O)N4Cc5ccccc5C[C@H]4C(=O)NCCC(=O)N[C@@H](CCCCN)C(=O)N[C@@H](CCCCN)C(=O)N[C@@H](CCCCN)C(=O)N[C@@H](CCCCN)C(N)=O)C4CCCCC43)C3CCCCC32)C2CCCCC21 (some centres undefined) (Ac-GF[Tic][X1]GK[Tic][X1]GF[Tic][X1]GK[Tic][βAla]KKKK-NH2) | 199 (≈ 500 µg/mL) | 199 (≈ 500 µg/mL) | 199 (≈ 500 µg/mL) | 199 (≈ 500 µg/mL) | 6.2 (≈ 15.6 µg/mL) | 199 (≈ 500 µg/mL) | 199 (≈ 500 µg/mL) | 199 (≈ 500 µg/mL) | 199 (≈ 500 µg/mL) | 12.4 (≈ 31.2 µg/mL) | 6.2 (≈ 15.6 µg/mL)
CC(=O)NCC(=O)N[C@@H](Cc1ccccc1)C(=O)N1Cc2ccccc2C[C@H]1C(=O)N1C[C@@H](C(=O)NCC(=O)N[C@@H](CCCNC(=N)N)C(=O)N2Cc3ccccc3C[C@H]2C(=O)N2C[C@@H](C(=O)NCC(=O)N[C@@H](Cc3ccccc3)C(=O)N3Cc4ccccc4C[C@H]3C(=O)N3C[C@@H](C(=O)NCC(=O)N[C@@H](CCCNC(=N)N)C(=O)N4Cc5ccccc5C[C@H]4C(=O)N[C@@H](CCCNC(=N)N)C(=O)N[C@@H](CCCNC(=N)N)C(=O)N[C@@H](CCCNC(=N)N)C(=O)N[C@@H](CCCNC(=N)N)C(N)=O)C4CCCCC43)C3CCCCC32)C2CCCCC21 (some centres undefined) (Ac-GF[Tic][X1]GR[Tic][X1]GF[Tic][X1]GR[Tic]RRRR-NH2) | 192 (≈ 501 µg/mL) | 192 (≈ 501 µg/mL) | 192 (≈ 501 µg/mL) | 192 (≈ 501 µg/mL) | 24 (≈ 62.6 µg/mL) | 96 (≈ 250 µg/mL) | 192 (≈ 501 µg/mL) | 192 (≈ 501 µg/mL) | 192 (≈ 501 µg/mL) | 5.98 (≈ 15.6 µg/mL) | 5.98 (≈ 15.6 µg/mL)
CC(=O)NCC(=O)N[C@@H](Cc1ccccc1)C(=O)N1Cc2ccccc2C[C@H]1C(=O)N1C[C@@H](C(=O)NCC(=O)N[C@@H](CCN)C(=O)N2Cc3ccccc3C[C@H]2C(=O)N2C[C@@H](C(=O)NCC(=O)N[C@@H](Cc3ccccc3)C(=O)N3Cc4ccccc4C[C@H]3C(=O)N3C[C@@H](C(=O)NCC(=O)N[C@@H](CCN)C(=O)N4Cc5ccccc5C[C@H]4C(=O)N[C@@H](CCN)C(=O)N[C@@H](CCN)C(=O)N[C@@H](CCN)C(=O)N[C@@H](CCN)C(N)=O)C4CCCCC43)C3CCCCC32)C2CCCCC21 (some centres undefined) (Ac-GF[Tic][X1]G[Dab][Tic][X1]GF[Tic][X1]G[Dab][Tic][Dab][Dab][Dab][Dab]-NH2) | 220 (≈ 500 µg/mL) | 220 (≈ 500 µg/mL) | 220 (≈ 500 µg/mL) | 220 (≈ 500 µg/mL) | 3.4 (≈ 7.73 µg/mL) | 220 (≈ 500 µg/mL) | 220 (≈ 500 µg/mL) | 220 (≈ 500 µg/mL) | 220 (≈ 500 µg/mL) | 6.8 (≈ 15.5 µg/mL) | 3.4 (≈ 7.73 µg/mL)
CC(=O)NCC(=O)N[C@@H](Cc1ccccc1)C(=O)N1Cc2ccccc2C[C@H]1C(=O)N1C[C@@H](C(=O)NCC(=O)N[C@@H](CCCN)C(=O)N2Cc3ccccc3C[C@H]2C(=O)N2C[C@@H](C(=O)NCC(=O)N[C@@H](Cc3ccccc3)C(=O)N3Cc4ccccc4C[C@H]3C(=O)N3C[C@@H](C(=O)NCC(=O)N[C@@H](CCCN)C(=O)N4Cc5ccccc5C[C@H]4C(=O)N[C@@H](CCCN)C(=O)N[C@@H](CCCN)C(=O)N[C@@H](CCCN)C(=O)N[C@@H](CCCN)C(N)=O)C4CCCCC43)C3CCCCC32)C2CCCCC21 (some centres undefined) (Ac-GF[Tic][X1]G[Orn][Tic][X1]GF[Tic][X1]G[Orn][Tic][Orn][Orn][Orn][Orn]-NH2) | 26.5 (≈ 62.5 µg/mL) | 212 (≈ 500 µg/mL) | 106 (≈ 250 µg/mL) | 212 (≈ 500 µg/mL) | 6.6 (≈ 15.6 µg/mL) | 53 (≈ 125 µg/mL) | 106 (≈ 250 µg/mL) | 106 (≈ 250 µg/mL) | 106 (≈ 250 µg/mL) | 0.82 (≈ 1.93 µg/mL) | 6.6 (≈ 15.6 µg/mL)
CC(=O)NCC(=O)N[C@@H](Cc1ccccc1)C(=O)N1C[C@@H](C(=O)N2C[C@H](C(=O)NCC(=O)N[C@@H](CCCCN)C(=O)N3C[C@@H](C(=O)N4C[C@@H](C(=O)NCC(=O)N[C@@H](Cc5ccccc5)C(=O)N5C[C@@H](C(=O)N6C[C@@H](C(=O)NCC(=O)N[C@@H](CCCCN)C(=O)N7Cc8ccccc8C[C@H]7C(=O)N[C@@H](CCCCN)C(=O)N[C@@H](CCCCN)C(=O)N[C@@H](CCCCN)C(=O)N[C@@H](CCCCN)C(N)=O)C7CCCCC76)C6CCCCC65)C5CCCCC54)C4CCCCC43)C3CCCCC32)C2CCCCC21 (some centres undefined) (Ac-GF[X1][X2]GK[X1][X1]GF[X1][X1]GK[Tic]KKKK-NH2) | 207 (≈ 500 µg/mL) | 207 (≈ 500 µg/mL) | 104 (≈ 251 µg/mL) | 207 (≈ 500 µg/mL) | 3.2 (≈ 7.73 µg/mL) | 207 (≈ 500 µg/mL) | 207 (≈ 500 µg/mL) | 207 (≈ 500 µg/mL) | 207 (≈ 500 µg/mL) | 26 (≈ 62.8 µg/mL) | 3.2 (≈ 7.73 µg/mL)
CC(=O)NCC(=O)N[C@@H](Cc1ccc(F)cc1)C(=O)N1Cc2ccccc2C[C@H]1C(=O)N1CC2CCCCC2[C@H]1C(=O)NCC(=O)N[C@@H](CCCCN)C(=O)N1Cc2ccccc2C[C@H]1C(=O)N1CC2CCCCC2[C@H]1C(=O)NCC(=O)N[C@@H](Cc1ccc(F)cc1)C(=O)N1Cc2ccccc2C[C@H]1C(=O)N1CC2CCCCC2[C@H]1C(=O)NCC(=O)N[C@@H](CCCCN)C(=O)N1Cc2ccccc2C[C@H]1C(=O)N[C@@H](CCCCN)C(=O)N[C@@H](CCCCN)C(=O)N[C@@H](CCCCN)C(=O)N[C@@H](CCCCN)C(N)=O (some centres undefined) (Ac-G[Phe(4-F)][Tic][Pro(3ξ,4ξ-(CH2)4)]GK[Tic][Pro(3ξ,4ξ-(CH2)4)]G[Phe(4-F)][Tic][Pro(3ξ,4ξ-(CH2)4)]GK[Tic]KKKK-NH2) | 202 (≈ 500 µg/mL) | 202 (≈ 500 µg/mL) | 202 (≈ 500 µg/mL) | 202 (≈ 500 µg/mL) | 6.2 (≈ 15.4 µg/mL) | 101 (≈ 250 µg/mL) | 202 (≈ 500 µg/mL) | 202 (≈ 500 µg/mL) | 202 (≈ 500 µg/mL) | 12.6 (≈ 31.2 µg/mL) | 3.1 (≈ 7.68 µg/mL)
CC(=O)N[C@@H](CCCCN)C(=O)N[C@@H](CCCCN)C(=O)N[C@@H](CCCCN)C(=O)N[C@@H](CCCCN)C(=O)NCC(=O)N[C@@H](Cc1ccccc1)C(=O)N1Cc2ccccc2C[C@H]1C(=O)N1C[C@@H](C(=O)NCC(=O)N[C@@H](CCCCN)C(=O)N2Cc3ccccc3C[C@H]2C(=O)N2C[C@@H](C(=O)NCC(=O)N[C@@H](Cc3ccccc3)C(=O)N3Cc4ccccc4C[C@H]3C(=O)N3C[C@@H](C(=O)NCC(=O)N[C@@H](CCCCN)C(=O)N4Cc5ccccc5C[C@H]4C(N)=O)C4CCCCC43)C3CCCCC32)C2CCCCC21 (some centres undefined) (Ac-KKKKGF[Tic][X1]GK[Tic][X1]GF[Tic][X1]GK[Tic]-NH2) | 13.1 (≈ 32 µg/mL) | 204 (≈ 498 µg/mL) | 51 (≈ 124 µg/mL) | 204 (≈ 498 µg/mL) | 12.8 (≈ 31.2 µg/mL) | 102 (≈ 249 µg/mL) | 51 (≈ 124 µg/mL) | 51 (≈ 124 µg/mL) | 25.6 (≈ 62.5 µg/mL) | 0.4 (≈ 0.976 µg/mL) | 12.8 (≈ 31.2 µg/mL)
CC(=O)NCCCCCC(=O)N[C@@H](Cc1ccccc1)C(=O)N1Cc2ccccc2C[C@H]1C(=O)N1CC2CCCCC2[C@H]1C(=O)NCCCCCC(=O)N[C@@H](CCCCN)C(=O)N1Cc2ccccc2C[C@H]1C(=O)N1CC2CCCCC2[C@H]1C(=O)NCCCCCC(=O)N[C@@H](Cc1ccccc1)C(=O)N1Cc2ccccc2C[C@H]1C(=O)N1CC2CCCCC2[C@H]1C(=O)NCCCCCC(=O)N[C@@H](CCCCN)C(=O)N1Cc2ccccc2C[C@H]1C(=O)N[C@@H](CCCCN)C(=O)N[C@@H](CCCCN)C(=O)N[C@@H](CCCCN)C(=O)N[C@@H](CCCCN)C(N)=O (some centres undefined) (Ac-[Ahx]F[Tic][Pro(3ξ,4ξ-(CH2)4)][Ahx]K[Tic][Pro(3ξ,4ξ-(CH2)4)][Ahx]F[Tic][Pro(3ξ,4ξ-(CH2)4)][Ahx]K[Tic]KKKK-NH2) | 23.4 (≈ 62.4 µg/mL) | 187 (≈ 498 µg/mL) | 23.4 (≈ 62.4 µg/mL) | 187 (≈ 498 µg/mL) | 2.9 (≈ 7.73 µg/mL) | 187 (≈ 498 µg/mL) | 93 (≈ 248 µg/mL) | 12 (≈ 32 µg/mL) | 47 (≈ 125 µg/mL) | 1.5 (≈ 4 µg/mL) | 5.9 (≈ 15.7 µg/mL)
